These results are taken from paper PMC7489219 (Molecular Brain, 2020).

The subject of the test is T1, primary mouse cortical neurons.
T1 construct: primary cortical neurons, DIV 10
The test is described as follows: cells. Set-up: Protection from NMDA-induced (30 uM, 10 min) neuronal death; Hoechst nuclear morphology by automated microscopy. Particulars: Cortical neurone, 20 h, read-out: % inhibition, inhibition of NMDA-induced cell death (protection score), 30 min pre-treatment. The protocol: On DIV 10, compounds were applied to the cells reaching an end concentration of 10 μM. Cells were incubated for 30 min at 37 °C, 5% CO2 before adding NMDA (30 μM). Cells were incubated for another 10 min in the incubator, then washed twice with defined minimal medium containing 10 μM of the respective compound and incubated for an additional 20 h before readout. Untreated (no NMDA) and NMDA-only stimulated wells were treated with 0.1% DMSO. […] After 15 min of incubation at room temperature, cells were washed twice with phosphate buffered saline. […] Dead neurons were identified by amorphous or shrunken nuclei using CellProfiler and CellProfiler Analyst software. For all cell death analyses the experimental unit (N) is defined as an independent experiment using an independent neuronal preparation. For each independent experiment, data from 3 replicate wells (i.e., from 36 images), representing an average of 3000 cells was analyzed per condition. The survival rate S was calculated by dividing the number of living cells by the total number of cells. The survival rate was then used to calculate the protection score according to Scompound−Svehicle/Suntreated−Svehicle×100=%protection , where ‘compound’ refers to compound + NMDA treatment, ‘vehicle’ refers to vehicle + NMDA treatment, and ‘untreated’ refers to DMSO control. […] As a proof of principle, we next used our assay to screen two commercially available drug libraries. In these screens, primary cortical cells were incubated with test compounds at 10 μM concentration for 30 min before addition of 30 μM NMDA. After 10 min NMDA treatment, cells were washed with fresh medium and kept in the presence of test compounds for 20 h until assessment of cell viability. […] This library covers structurally diverse drugs from several fields such as oncology, cardiology, immunology, and neurology/psychiatry.

Each structure is given as a SMILES string. Structures can show the parent of a compound that is named as a salt.

Consider `CCN(CC)CCNC(=O)c1c(C)[nH]c(/C=C2\C(=O)Nc3ccc(F)cc32)c1C` [Sunitinib Malate (Sutent)], for which the inhibition at 10 µM worked out at 1.4%.

As to `CCCC[N+]1(C)[C@@H]2CC(OC(=O)[C@H](CO)c3ccccc3)C[C@H]1[C@@H]1O[C@@H]12` (stereo partly drawn) [Butylscopolamine bromide (Scopolamine butylbromide)], the inhibition at 10 µM was determined as 5%.

For the molecule `NC(=O)Cc1cccc(C(=O)c2ccccc2)c1N` [Nepafenac], the inhibition at 10 µM was -12.2%.

Take `C[C@]12CCC(=O)C=C1[C@@H]1C[C@@H]1[C@H]1[C@@H]3[C@@H]4C[C@@H]4[C@@]4(CCC(=O)O4)[C@@]3(C)CC[C@@H]12` [Drospirenone]: the inhibition at 10 µM was -0.385%.

On to `COc1cc(C(C)=O)ccc1OCCCN1CCC(c2noc3cc(F)ccc23)CC1` [Iloperidone (Fanapt)], for which the inhibition at 10 µM is 21.7%.

As for `CC1(C)O[C@@H]2[C@@H](CO[C@@]3(COS(N)(=O)=O)OC(C)(C)O[C@@H]23)O1` [Topiramate], the inhibition at 10 µM was 11.4%.

Turning to `Oc1c(Cl)cc(Cl)c2cccnc12` [Chloroxine], the inhibition at 10 µM was -4.86%.

Regarding `Cc1ccccc1N1C(=O)c2cc(S(N)(=O)=O)c(Cl)cc2NC1C` (stereo not drawn) [Metolazone (Zaroxolyn)], the inhibition at 10 µM is 27.9%.

With `CN/C(=N\CCSCc1nc[nH]c1C)NC#N` [Cimetidine (Tagamet)], the inhibition at 10 µM was -0.847%.

Take `NS(=O)(=O)c1cc2c(cc1Cl)N=CNS2(=O)=O` [Chlorothiazide]: the inhibition at 10 µM came out at 31.3%.

On to `Cc1nnc(C(=O)NC(C)(C)c2nc(C(=O)NCc3ccc(F)cc3)c(O)c(=O)n2C)o1` [Raltegravir (MK-0518)], for which the inhibition at 10 µM stood at 8.86%.

In the case of `C#C[C@]1(O)CC[C@H]2[C@@H]3CCC4=CC(=O)CC[C@@H]4[C@H]3CC[C@@]21CC` [Levonorgestrel (Levonelle)], the inhibition at 10 µM is -1.05%.

As to `NNc1nncc2ccccc12` [Hydralazine hydrochloride], the inhibition at 10 µM was -0.625%.

Consider `C[C@H]1COC2=C1C(=O)C(=O)c1c2ccc2c1CCCC2(C)C` [Cryptotanshinone], for which the inhibition at 10 µM was -2.15%.

On to `CCC[C@H](N[C@@H](C)C(=O)N1[C@H](C(=O)O)C[C@@H]2CCCC[C@@H]21)C(=O)OCC` [Perindopril Erbumine (Aceon)], for which the inhibition at 10 µM is -1.31%.

As for `C=CCc1ccc(O)c(-c2cc(CC=C)ccc2O)c1` [Magnolol], the inhibition at 10 µM was -3.4%.

In the case of `C[C@]12C=CC(=O)C=C1CC[C@@H]1[C@@H]2C(=O)C[C@@]2(C)[C@H]1CC[C@]2(O)C(=O)CO` [Prednisone (Adasone)], the inhibition at 10 µM is 28.4%.

With `Cc1c(N)nc([C@H](CC(N)=O)NC[C@H](N)C(N)=O)nc1C(=O)N[C@H](C(=O)N[C@H](C)[C@@H](O)[C@H](C)C(=O)N[C@H](C(=O)NCCc1nc(-c2nc(C(=O)NCCC[S+](C)C)cs2)cs1)[C@@H](C)O)[C@@H](O[C@@H]1O[C@@H](CO)[C@@H](O)[C@H](O)[C@@H]1O[C@H]1O[C@H](CO)[C@@H](O)[C@H](OC(N)=O)[C@@H]1O)c1cnc[nH]1` [Bleomycin sulfate], the inhibition at 10 µM was -2.58%.

In the case of `CC(=O)C1=C(O)C=C2Oc3c(C(C)=O)c(O)c(C)c(O)c3[C@@]2(C)C1=O` [(+)-Usniacin (D-Usnic acid)], the inhibition at 10 µM was -4.28%.

For `CC(O)(CS(=O)(=O)c1ccc(F)cc1)C(=O)Nc1ccc(C#N)c(C(F)(F)F)c1` (stereo not drawn) [Bicalutamide (Casodex)], the inhibition at 10 µM is -3.38%.

For the molecule `C[C@H]1C[C@H]2[C@@H]3CCC4=CC(=O)C=C[C@]4(C)[C@H]3C(=O)C[C@]2(C)[C@@]1(O)C(=O)CO` [Betapar (Meprednisone)], the inhibition at 10 µM was determined as 11.6%.

On to `NS(=O)(=O)c1cc2c(cc1Cl)NCNS2(=O)=O` [Hydrochlorothiazide], for which the inhibition at 10 µM came to 8.57%.

In the case of `CC1=C(CC(=O)O)c2cc(F)ccc2/C1=C\c1ccc([S+](C)[O-])cc1` (stereo not drawn) [Sulindac (Clinoril)], the inhibition at 10 µM is -5.67%.

`NCCCCCC(=O)O` [Aminocaproic acid (Amicar)]: the inhibition at 10 µM was determined as 25.5%.

A word on the inhibition: it is the drop in the measured response relative to a control, in per cent.
